Here are results for three molecules from PMC5244392, “Interspecies cathelicidin comparison reveals divergence in antimicrobial activity, TLR modulation, chemokine induction and regulation of phagocytosis” (Scientific Reports, 2017).

In general, MBC refers to the smallest concentration meeting the test's criterion for killing.

The subject of one assay is E. coli and MRSA. It is filed as cell-based. Particulars: run of Fig. 1A; bacterium and medium not given. How it is done: In order to compare our Cmax with MBC values, wells without visible bacterial growth were plated out on TSA plates and incubated o/n at 37 °C to determine the presence of viable bacteria.
The antimicrobial capacities were tested under the same conditions and expressed as growth delay instead of the more classical MIC/MBC determination using broth dilution assays. […] The fact that DMEM medium makes S. aureus susceptible to PR-39 is surprising since this peptide is thought to require active uptake by the SbmA transporter, only present in Gram – bacteria. The results obtained in this work, might indicate that the peptide possibly switches to a different mechanism of action with initially a bacteriostatic effect, but more thorough studies are required to elucidate the details of these initial observations.

The subject of another assay is E. coli O78. Briefly: Bacterial growth delay (Bioscreen C), E. coli. The class given is cell-based, Escherichia coli. Particulars: for Max: hours growth delay with 20 μM cathelicidin, E. coli, DMEM: DMEM + FCS. How it is done: (§1) E. coli O78 (Zoetis Animal Health, Kalamazoo, MI, USA), E. coli ATCC 25922, Staphylococcus aureus ATCC 29213, and methicillin resistant Staphylococcus aureus (MRSA) (WKZ-2, human clinical isolate) were grown overnight from a glycerol stock in Mueller Hinton Broth (MHB) (Becton Dickinson, USA). Before use, bacteria were grown to mid-log phase in MHB for 2 hours at 37 °C, 200 RPM. Murine RAW264.7 macrophages (ATCC-TIB-71) were obtained from the American Type Culture Collection (ATCC, Manassas, VA, USA) and cultured in DMEM (41966-029; Thermo Fisher Scientific, Waltham, MA, USA) supplemented with 10% FCS (Bodinco B.V., Alkmaar, the Netherlands) (DMEM + FCS) at 37 °C, 5.0% CO2. Cells were seeded in 96-wells plates at 5 × 10^5 cells/ml or 12-wells plates at 2 × 10^5/ml for adherence overnight prior to stimulation.
(§2) Peptides (0.63 to 40 μM) and bacteria mid-log cultures (2 * 10^6 CFU/ml) were prepared in MHB or DMEM + FCS and mixed (100 μl peptide + 100 μl bacterial culture) in a Bioscreen C analyzer plate (Oy Growth Curves Ab Ltd, Helsingfors, Finland). Plates were placed in a Bioscreen C analyzer (Oy Growth Curves Ab Ltd) and bacteria were grown for 16 h at 37 °C with 200 RPM. The OD was measured every 15 minutes using a wideband filter (450–580 nm) to measure bacterial growth. The time needed grow above an OD of 0.6 was determined for all concentrations. Activity of peptides was expressed as the Cmax, the concentration of peptide required to delay the growth for 10 h compared to the control. Or, for peptides with low activity (no Cmax), activity was expressed as the hours of growth delay at 20 μM. Unlike the classic MIC and MBC determination used in microbiology, this method also enabled comparison of peptides with low antibacterial activity.
(§3) Twelve cathelicidins from 6 different species were selected for this study, namely: human LL-37, murine CRAMP, dog K9CATH, equine CATH (eCATH)-1, -2 and -3, chicken CATH (chCATH)-1, -2, and -3, porcine PMAP-23 and -36 and PR-39 (Table 1). Antimicrobial activity against E. coli and MRSA was directly compared under standardized conditions in MHB, a medium optimized for bacterial growth. Bacterial growth delay was defined as the delay in hours for peptide-treated bacteria to reach an OD of 0.6, compared to the non-treated control. Cmax is the minimal concentration needed to delay growth for a minimum of 10 hours compared to the non-treated control (Table 1 and Fig. 1A).
(§4) Figure 1 Antibacterial activity of cathelicidins. E. coli and MRSA (1 × 10^6 CFU/ml) of were grown in MHB or DMEM ± FCS for 16 hours under constant shaking (200 RPM). Every 15 minutes the OD was measured. Growth delay was defined as the time needed for peptide-treated bacteria to grow above an OD of 0.6 compared to the control bacteria (no peptide added) (A). Cathelicidins were tested in different concentrations (0.31 μM, 0.63 μM, 1.25 μM, 2.5 μM, 5 μM, 10 μM, and 20 μM) to determine the antimicrobial activity in MHB against E. coli (B) or MRSA (C) and in more physiological medium DMEM + FCS (D,E). Results are presented as average +/− SEM (N = 4).

Assay [1] concerns methicillin resistant Staphylococcus aureus (MRSA) (WKZ-2, human clinical isolate). Description: Bacterial growth delay (Bioscreen C), MRSA. It is filed as cell-based. On the procedure: as §1, §2, §3, §4
The subject of assay [2] is CCL2 (MCP-1) release by RAW264.7 cells. Briefly: Cathelicidin induced CCL2 release. It is filed as cell-based, murine. The conditions noted are these: 24 h, peptide 0.08-20 μM. How it is done:
as §1
ELISA Duoset kits for mouse TNFα, CCL5, CXCL10 and IL-10 were obtained from R&D systems (Minneapolis, MN, USA) and ELISAs were performed according to the manufacturer’s protocol. Samples were stored at −20 °C until analysis and, if needed, diluted in 1% BSA in PBS, pH 7.4. Absorbance at 450 nm was determined in a FLUOstar Omega microplate reader (BMG Labtech GmbH) and corrected for absorbance at 570 nm. Results were analyzed with MARS data analysis software (BMG Labtech GmbH).
Since cathelicidins have membrane-perturbing properties which might affect the host’s cell membrane, first the possible cytotoxicity of the cathelicidins to RAW264.7 cells was assessed. […] Next, RAW264.7 cells were stimulated with the cathelicidins at various concentrations for 2 h and 24 h, after which release of CCL2 (MCP-1), CCL5 (RANTES), CXCL10 (IP-10), TNFα and IL-10 was determined.
Figure 2 Cathelicidin induced chemokine and cytokine release by RAW264.7 cells. RAW264.7 cells were incubated for 2 h and 24 h with cathelicidins (0.08 μM, 0.31 μM, 1.25 μM, 5 μM, and 20 μM), after which the supernatants were harvested and tested for release of CCL2 at 2 h (A) and 24 h (B), CCL5 at 24 h (C) and CXCL10 at 24 h (D). Dotted line represents average cytokine release of control samples. Results are presented as average +/− SEM (N = 3). Statistical differences were determined by Two-way ANOVA with Bonferroni post-hoc test.

The test system of another assay is RAW264.7 cells. Description: Phagocytosis assay with fluorescent latex beads. The class given is cell-based, murine. The conditions noted are these: latex beads 10 per cell, 30 min, peptide 0.31, 1.25 and 5 μM. On the procedure:
Red fluorescent (λex 575 nm and λem 610 nm) carboxylate-modified polystyrene latex beads (0.5 μm; Sigma Aldrich, St. Louis, MO, USA) were washed three times with PBS and resuspended in culture medium. Peptide dilutions were prepared in culture medium and added to RAW264.7 cells, directly followed by the latex beads (ratio 10 beads to 1 cell). Cells were incubated for 30 minutes at 37 °C, 5% CO2 (energy-dependent uptake) or 0 °C (non-specific adherence), after which cells were washed extensively with ice-cold PBS supplemented with 1% FCS and 0.01% NaN3, to remove all free beads. After washing, cells were scraped and resuspended in FACS buffer (PBS supplemented with 0.5% BSA). Samples were measured with the BD FACSCanto II flow cytometer (BD Biosciences, San Jose, CA, USA) and analyzed with FlowJo software (Ashland, OR, USA). Mean fluorescence intensity (MFI), corrected for non-specific adherence, was used as an indicator for the number of beads taken up.
While the above-described functions of cathelicidins are well-known, relatively little is known about the influence of cathelicidins on phagocytosis. Therefore, RAW264.7 cells were incubated with fluorescent beads to study the effect of cathelicidins on phagocytosis. The uptake was corrected for fluorescence measured after incubation on ice instead of 37 °C, which inhibits the active process of phagocytosis. After 30 minutes, 90% of the RAW264.7 cells took up latex beads (Fig. 4A). Histograms exemplify changes in bead phagocytosis with different concentrations of K9CATH (Fig. 4B), eCATH-2 (Fig. 4C) and chCATH-3 (Fig. 4D). Effect of all cathelicidins are depicted by the average mean fluorescence intensity (MFI) in Fig. 4E.
Figure 4 Effects of cathelicidins on phagocytosis by RAW264.7 cells. RAW264.7 cells were incubated with cathelicidins (0.31 μM, 1.25 μM, and 5 μM) and red fluorescent latex beads (10 beads to 1 cell) at 37 °C (energy dependent uptake) or on ice (non-specific adherence) for 30 minutes. Histograms show control (no peptide present) bead uptake at 37 °C (gray, filled) and 0 °C (black line) (A), or uptake in presence of different concentrations of indicated cathelicidins (B–D); 0 μM (red, filled), 0.31 μM (black line), 1.25 μM (green line) or 5 μM (blue line). Uptake was quantified by determining the MFI after correction for 0 °C control (E). Results are presented as average +/− SEM (N = 3). Statistical differences were determined by Two-way ANOVA with Bonferroni post-hoc test.

[3] abbreviates: 20 μM peptide, given if no Cmax was reached, N = 4.
Setting [4] is: MHB, 20 μM peptide, given if no Cmax was reached, N = 4.

In the case of `CC[C@H](C)[C@H](NC(=O)[C@H](CCCCN)NC(=O)[C@H](CCC(=O)O)NC(=O)[C@H](CCCCN)NC(=O)[C@H](CO)NC(=O)[C@H](CCCCN)NC(=O)[C@H](CCCNC(=N)N)NC(=O)[C@H](Cc1ccccc1)NC(=O)[C@H](Cc1ccccc1)NC(=O)[C@H](CC(=O)O)NC(=O)CNC(=O)[C@H](CC(C)C)NC(=O)[C@@H](N)CC(C)C)C(=O)NCC(=O)N[C@@H](CCCCN)C(=O)N[C@@H](CCC(=O)O)C(=O)N[C@@H](Cc1ccccc1)C(=O)N[C@@H](CCCCN)C(=O)N[C@@H](CCCNC(=N)N)C(=O)N[C@H](C(=O)N[C@H](C(=O)N[C@@H](CCC(N)=O)C(=O)N[C@@H](CCCNC(=N)N)C(=O)N[C@H](C(=O)N[C@@H](CCCCN)C(=O)N[C@@H](CC(=O)O)C(=O)N[C@@H](Cc1ccccc1)C(=O)N[C@@H](CC(C)C)C(=O)N[C@@H](CCCNC(=N)N)C(=O)N[C@@H](CC(N)=O)C(=O)N[C@@H](CC(C)C)C(=O)N[C@H](C(=O)N1CCC[C@H]1C(=O)N[C@@H](CCCNC(=N)N)C(=O)N[C@H](C(=O)N[C@@H](CCC(=O)O)C(=O)N[C@@H](CO)C(=O)O)[C@@H](C)O)C(C)C)[C@@H](C)CC)C(C)C)[C@@H](C)CC` [LL-37], the MBC against E. coli and MRSA was more than 20 µM.

On to “KRFGRLAKSFLRMRILLPRRKILLAS [eCATH-1, equine CATH-1, 26 residues, charge +9]”, for which the “Max: hours growth delay with 20 μM cathelicidin, E. coli, DMEM” value in the assay on E. coli O78 (setting [3]) turned out to be 3.5 h. Further, the “Cmax: cathelicidin concentration resulting in a delay in bacterial growth with minimal 10 hours, E. coli, MHB” value in the assay on E. coli O78 (MHB, 1 × 10^6 CFU/ml, peptide 0.31-20 μM, 16 h, 37 °C, 200 RPM, time to OD 0.6 vs control, — = no Cmax reached up to 20 μM, N = 4) came to 20 µM. In the assay with E. coli O78 (MHB, − is not defined in the key), the “Summary class, antimicrobial activity E. coli MHB” value is “+++ (+++ = Cmax at ≤20 μM)”. The “Cmax, MRSA, DMEM” value in assay [1] (DMEM + FCS, 1 × 10^6 CFU/ml, peptide 0.31-20 μM, 16 h, 37 °C, — = no Cmax reached up to 20 μM, N = 4) came out at 20 µM. Also, the “Summary class, antimicrobial activity S. aureus DMEM” value in assay [1] (DMEM + FCS, MRSA, − is not defined in the key) is listed as “+++ (+++ = Cmax at ≤20 μM)”. Besides, the “Max: hours growth delay with 20 μM cathelicidin, MRSA, MHB” value in assay [1] (setting [4]) came out at 7.5 h. In addition, in assay [1] (MHB, MRSA, − is not defined in the key), the “Summary class, antimicrobial activity S. aureus MHB” value is “+ (+ = >4 hours inhibition at 20 μM)”. Moreover, the “Effect on CCL2 secretion after 24 h stimulation, in words” value in assay [2] is given as “non-significant”. For the same molecule, the “Effect on bead uptake (phagocytosis), in words” value in the assay on RAW264.7 cells is “did not affect bead uptake”.

Regarding “KRFHSVGSLIQRHQQMIRDKSEATRHGIRIITRPKLLLAS [eCATH-3, equine CATH-3, 40 residues, charge +10]”, the “Max: hours growth delay with 20 μM cathelicidin, E. coli, DMEM” value in the assay with E. coli O78 (setting [3]) was 1.5 h. Further, the “Activity against E. coli in MHB, in words” value in the assay with E. coli O78 (MHB, peptide up to 20 μM) is “no or very little activity”. For the same molecule, in the assay with E. coli O78 (MHB, 20 μM peptide, given if no Cmax was reached, time to OD 0.6 vs control, N = 4), the “Max: hours growth delay with 20 μM cathelicidin, E. coli, MHB” value turned out to be 0.0 h. In addition, the “Max: hours growth delay with 20 μM cathelicidin, MRSA, DMEM” value in assay [1] (DMEM + FCS, 20 μM peptide, given if no Cmax was reached, N = 4) came to 1.5 h. Besides, in assay [1] (setting [4]), the “Max: hours growth delay with 20 μM cathelicidin, MRSA, MHB” value stood at 0.0 h. Also, the “Effect on bead uptake (phagocytosis), in words” value with RAW264.7 cells is given as “did not affect bead uptake”.
